# From patent US8952180B2, “Pyrrolinone carboxamide compounds useful as endothelial lipase inhibitors” (Bristol-Myers Squibb Company, priority 2011, dated 2015)
# Molecular target: T1, endothelial lipase (EL) (Homo sapiens, UniProt Q9Y5X9)
# T1 construct: HT-1080 cells, which were transformed by RAGE technology (Athersys) to overexpress endogenous EL; endogenous in cells; conditioned medium used as the enzyme source
# T1 sequence (Q9Y5X9 21-500): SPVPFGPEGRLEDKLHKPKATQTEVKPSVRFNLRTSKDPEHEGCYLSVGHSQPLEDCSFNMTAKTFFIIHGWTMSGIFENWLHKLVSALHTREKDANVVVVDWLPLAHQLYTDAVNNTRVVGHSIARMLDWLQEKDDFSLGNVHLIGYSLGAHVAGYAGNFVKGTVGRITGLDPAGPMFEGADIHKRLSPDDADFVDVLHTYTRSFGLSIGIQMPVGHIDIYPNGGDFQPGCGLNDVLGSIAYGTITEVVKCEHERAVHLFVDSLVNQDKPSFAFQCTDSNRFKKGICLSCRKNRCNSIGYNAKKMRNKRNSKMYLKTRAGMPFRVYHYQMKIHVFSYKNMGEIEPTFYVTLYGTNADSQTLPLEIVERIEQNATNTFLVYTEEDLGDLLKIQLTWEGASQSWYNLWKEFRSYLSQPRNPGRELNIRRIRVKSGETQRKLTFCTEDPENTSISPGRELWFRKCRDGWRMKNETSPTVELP
# Assay: Endothelial lipase (EL) enzymatic assay with fluorescent substrate A10070 in DMPG vesicles
# Assay type: biochemical
# Conditions: conditioned media from HT-1080 cells overexpressing endogenous EL; 20 min preincubation at 37° C.; read-out: HLE_EL_CRC IC50
# Procedure: Endothelial lipase activity was measured using a fluorescent substrate, A10070, (Invitrogen, CA) doped into an artificial vesicle containing DMPG (Avanti Polar Lipids) as the excipient. Vesicles were prepared by combining 285 uL of 1 mM DMPG in a 1:1 mixture of MeOH and CHCl3 with 15 uL of 1 mM A10070 in a 1:1 mixture of MeOH and CHCl3. The mixture was dried under nitrogen and resuspended in 150 uL of 50 mM HEPES pH 8.0 buffer containing 100 mM NaCl and 0.2 mM EDTA. The sample was allowed to sit at rt for 15 min and then was sonicated 3×4 mins on ice with a Branson Sonicator using duty cycle 1. This preparation provides vesicles with a mole fraction of 0.05 for the FRET substrate.
# The enzymatic assay was measured using white, opaque 96-well half area plates. Each well contained 60 uL of assay buffer (50 mM HEPES pH 8.0, 50 mM NaCl and 1 mM CaCl2) and 2 ul of a DMSO solution containing compound of interest. Conditioned media obtained from HT-1080 cells, which were transformed by RAGE technology (Athersys) to overexpress endogenous EL, was added and the reaction was allowed to incubate for 20 min at 37° C. with gentle agitation. The reaction was started by the addition of 20 uL of a 1:4 dilution of vesicles. The final total reaction volume was 100 uL. The reaction rates were measured on a Gemini plate reader with an excitation wavelength of 488 nm and a emission of 530 nm. Readings were taken every 20 seconds for 10 min with agitation between each reading. The slope of the linear portion of the readout was used to calculate the rate of the reaction.
row,Structure (SMILES),IC50
1,"O=C(NCCCc1ccc(Cl)c(Cl)c1)C1=C(O)C(=O)N(CC2CCCCC2)C1 [Example 48, 1-(cyclohexylmethyl)-N-(3-(3,4-dichlorophenyl)propyl)-4-hydroxy-5-oxo-2,5-dihydro-1H-pyrrole-3-carboxamide]",5.73 nM
2,"O=C(NCCCc1ccc(Cl)c(Cl)c1)C1=C(O)C(=O)N(CCOc2ccccc2)C1 [Example 61, N-(3-(3,4-dichlorophenyl)propyl)-4-hydroxy-5-oxo-1-(2-phenoxyethyl)-2,5-dihydro-1H-pyrrole-3-carboxamide]",5.44 nM
3,"CCOC(=O)[C@H](Cc1ccccc1)N1CC(C(=O)NCCCc2ccc(Cl)c(Cl)c2)=C(O)C1=O [Example 138, (S)-ethyl 2-(4-(3-(3,4-dichlorophenyl)propylcarbamoyl)-3-hydroxy-2-oxo-2,5-dihydro-1H-pyrrol-1-yl)-3-phenylpropanoate]",526 nM
4,"CCN1CC(C(=O)NCCCc2ccc(Cl)c(Cl)c2)=C(NCCCc2ccc(Cl)c(Cl)c2)C1=O [Example 179, N-(3-(3,4-dichlorophenyl)propyl)-4-(3-(3,4-dichlorophenyl)-propylamino)-1-ethyl-5-oxo-2,5-dihydro-1H-pyrrole-3-carboxamide]",546 nM
5,"CCN1CC(C(=O)NCCc2ccc(S(N)(=O)=O)cc2)=C(O)C1=O [Example 181, 1-ethyl-4-hydroxy-5-oxo-N-(4-sulfamoylphenethyl)-2,5-dihydro-1H-pyrrole-3-carboxamide]",581 nM
6,"CCN1CC(C(=O)NCCCN(C)c2ccccc2)=C(O)C1=O [Example 182, 1-ethyl-4-hydroxy-N-(3-(methyl(phenyl)amino)propyl)-5-oxo-2,5-dihydro-1H-pyrrole-3-carboxamide]",3650 nM
7,"CC1C(C(=O)NCCCc2ccc(Cl)c(Cl)c2)=C(O)C(=O)N1CCOc1ccccc1 (centres unmarked) [Example 194, N-(3-(3,4-dichlorophenyl)propyl)-4-hydroxy-2-methyl-5-oxo-1-(2-phenoxyethyl)-2,5-dihydro-1H-pyrrole-3-carboxamide]",466 nM
8,"CN1CC(C(=O)NC(CCc2ccc(Cl)c(Cl)c2)C2CC2)=C(O)C1=O (centres unmarked) [Example 232, N-(1-cyclopropyl-3-(3,4-dichlorophenyl)propyl)-4-hydroxy-1-methyl-5-oxo-2,5-dihydro-1H-pyrrole-3-carboxamide]",5460 nM
9,"CN1CC(C(=O)NC(CCc2ccc(Cl)c(Cl)c2)C2CC2)=C(O)C1=O (centres unmarked) [Example 233, N-(1-cyclopropyl-3-(3,4-dichlorophenyl)propyl)-4-hydroxy-1-methyl-5-oxo-2,5-dihydro-1H-pyrrole-3-carboxamide]",6280 nM

# Next, values leading:
row,IC50,Structure (SMILES)
1,493 nM,"C=CC(CCc1ccc(Cl)c(Cl)c1)NC(=O)C1=C(O)C(=O)N(C)C1 (centres unmarked) [Example 236, N-(5-(3,4-dichlorophenyl)pent-1-en-3-yl)-4-hydroxy-1-methyl-5-oxo-2,5-dihydro-1H-pyrrole-3-carboxamide]"
2,8380 nM,"Cc1nc2cc(C#CCNC(=O)C3=C(O)C(=O)N(C)C3)ccc2s1 [Example 247, 4-hydroxy-1-methyl-N-(3-(2-methylbenzo[d]thiazol-5-yl)prop-2-ynyl)-5-oxo-2,5-dihydro-1H-pyrrole-3-carboxamide]"
3,4660 nM,"Cc1ccc(C#CCNC(=O)C2=C(O)C(=O)N(C)C2)cc1C(F)(F)F [Example 248, 4-hydroxy-1-methyl-N-(3-(4-methyl-3-(trifluoromethyl)phenyl)prop-2-ynyl)-5-oxo-2,5-dihydro-1H-pyrrole-3-carboxamide]"
4,3440 nM,"CC(CCc1ccc(Cl)c(Cl)c1)NC(=O)C1=C(O)C(=O)N(Cc2c[nH]nn2)C1 (centres unmarked) [Example 272, 1-((1H-1,2,3-triazol-4-yl)methyl)-N-(4-(3,4-dichlorophenyl)butan-2-yl)-4-hydroxy-5-oxo-2,5-dihydro-1H-pyrrole-3-carboxamide]"
5,2680 nM,"CC(CCc1ccc(Cl)c(Cl)c1)NC(=O)C1=C(O)C(=O)N(CCNC(=O)c2cc(F)cc(C(F)(F)F)c2)C1 (centres unmarked) [Example 273, N-(4-(3,4-dichlorophenyl)butan-2-yl)-1-(2-(3-fluoro-5-(trifluoromethyl)benzamido)ethyl)-4-hydroxy-5-oxo-2,5-dihydro-1H-pyrrole-3-carboxamide]"
6,7300 nM,"CC(=O)N(C)CCN1CC(C(=O)NC(C)CCc2ccc(Cl)c(Cl)c2)=C(O)C1=O (centres unmarked) [Example 280, N-(4-(3,4-dichlorophenyl)butan-2-yl)-4-hydroxy-1-(2-(N-methylacetamido)ethyl)-5-oxo-2,5-dihydro-1H-pyrrole-3-carboxamide]"
7,6520 nM,"CCN1CC(C(=O)NC[C@H]2CCc3ccccc3O2)=C(O)C1=O [Example 297, (R)-N-(chroman-2-ylmethyl)-1-ethyl-4-hydroxy-5-oxo-2,5-dihydro-1H-pyrrole-3-carboxamide]"
8,2740 nM,"O=C(NCCCOc1ccccc1)C1=C(O)C(=O)N(CC(F)(F)F)C1 [Example 299, 4-hydroxy-5-oxo-N-(3-phenoxypropyl)-1-(2,2,2-trifluoroethyl)-2,5-dihydro-1H-pyrrole-3-carboxamide]"
9,3810 nM,"C[C@@H](NC(=O)C1=C(O)C(=O)N(CC(F)(F)F)C1)c1ccc2ccccc2c1 [Example 300, (R)-4-hydroxy-N-(1-(naphthalen-2-yl)ethyl)-5-oxo-1-(2,2,2-trifluoroethyl)-2,5-dihydro-1H-pyrrole-3-carboxamide]"
10,575 nM,"CC(CCc1ccc(Cl)c(Cl)c1)NC(=O)C1=C(O)C(=O)N(CCC(=O)O)C1 (centres unmarked) [Example 344, 3-(4-(4-(3,4-dichlorophenyl)butan-2-ylcarbamoyl)-3-hydroxy-2-oxo-2,5-dihydro-1H-pyrrol-1-yl) propanoic acid]"
11,500 nM,"CC(CCc1ccc(Cl)c(Cl)c1)NC(=O)C1=C(O)C(=O)N([C@H]2CCc3ccc(C(F)(F)F)cc32)C1 (stereo partly drawn) [Example 347, N-(4-(3,4-dichlorophenyl)butan-2-yl)-4-hydroxy-5-oxo-1-((S)-6-(trifluoromethyl)-2,3-dihydro-1H-inden-1-yl)-2,5-dihydro-1H-pyrrole-3-carboxamide]"
